Values of other authors as cited in patent US20150272930A1, “Fixed Dosage Formulations of Angiotensin Converting Enzyme (ACE) inhibitor and the Diuretic Chlorthalidone” (AILEX Pharmaceuticals PVT. LTD., priority 2014, published 2015).

Conditions: compared with HCTZ

NS(=O)(=O)c1cc(C2(O)NC(=O)c3ccccc32)ccc1Cl (centres unmarked) [Chlorthalidone, 2-chloro-5-(1-hydroxy-3-oxo-1,2-dihydroisoindol-1-yl)-benzenesulfonamide]
duration of action: longer duration of action | antihypertensive effectiveness (over 24 hours): more effective antihypertensive agent
